The results in this text go back to BindingDB's records for doi:10.1007/s10822-022-00478-x (Roche Innovation Center Basel, F. Hoffmann-La Roche Ltd., 2022).

This assay has as its target cAMP and cAMP-inhibited cGMP 3',5'-cyclic phosphodiesterase 10A (Homo sapiens, UniProt Q9Y233). Kind of assay: PDE10A assay. The method, boiled down:
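Scintillation proximity readout of [3H]cGMP hydrolysis (50 nM final substrate, 15 min) by 2 ng/well human PDE10A after 15 min compound preincubation at RT, pH 7.5 with MgCl2. Four-parameter logistic fit gave IC50, reported as pIC50.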

In general, IC50 refers to the concentration that inhibits the measured activity by half. A lower IC50 goes with greater potency in that assay. In turn, `Cc1ncc(C)n2nc(/C=C/c3nc(N4CCC[C@H]4CF)nn3C)nc12` [Roche-Dataset for PDE10A, Compound 691] gave an IC50 of 787 nM. In other words, the sub-micromolar range.

Regarding `CC(C)(O)CNC(=O)c1cccc(NC(=O)c2nc(C3CC3)cnc2Nc2cncnc2)n1` [Roche-Dataset for PDE10A, Compound 894], the IC50 worked out at 5.48 nM.

In turn, `Cn1ncc(C(=O)N2CCC2)c1C(=O)Nc1ccn2nc(-c3ccccc3OCF)nc2c1` [Roche-Dataset for PDE10A, Compound 71] returned an IC50 of 1.73 nM.

Compound `Cn1ncc(C(=O)N2CCC2)c1C(=O)Nc1cc(-c2ccccc2Cl)nn1C1CCCC1` [Roche-Dataset for PDE10A, Compound 438] showed an IC50 of 879 nM.

Turning to `COCc1ccc(Nc2cncnc2)c(C(=O)Nc2cc(-c3ccccn3)nn2CCO)n1` [US8470820, 11], the IC50 is 5.24 nM.

`CCOC(=O)c1cnn(C)c1C(=O)Nc1ccn2nc(Br)nc2c1` [Roche-Dataset for PDE10A, Compound 936]: the IC50 was 3500 nM.

In turn, `CN(CCO)C(=O)c1cnn(C)c1C(=O)Nc1ccn2nc(N3CCOCC3)nc2c1` [Roche-Dataset for PDE10A, Compound 276] displayed a 50% inhibitory concentration (IC50) of 20 nM.

Compound `CNC(=O)c1cc2[nH]c(-c3ccccc3)nc2cc1NC(=O)c1cc(C)n(C)n1` [Roche-Dataset for PDE10A, Compound 391] registered an IC50 of 197 nM.

Compound `O=C(Nc1cnccc1Cl)c1nc(C2CC2)ccc1Nc1cncnc1` [Roche-Dataset for PDE10A, Compound 995] yielded an IC50 of 21 nM.

As to `Cn1ncc(C(=O)N(CCO)CCO)c1C(=O)Nc1ccn2nc(-c3ccccc3)nc2c1` [Roche-Dataset for PDE10A, Compound 125], the 50% inhibitory concentration (IC50) was found to be 3.98 nM.

As to `Cn1ncc(C(=O)N2CCOCC2)c1C(=O)Nc1ccn2nc(-n3ccnc3)nc2c1` [Roche-Dataset for PDE10A, Compound 496], inhibition was half-maximal at 104 nM (IC50). Compared with the last compound, the IC50 is about 26-fold higher.

As to `O=C(Nc1cc(F)c(F)cc1C(=O)N1CCC1)c1nc(C2CC2)cnc1Nc1cncnc1` [US8703768, 291], the IC50 came to 28 nM.

The compound `Cn1cc(-c2ccccc2)nc1C#Cc1ccc2nc(C(F)(F)F)cn2n1` [US10399985, Example 8] came in with an IC50 of 12 nM.

With `CCOc1cc(Cl)c(C)n2nc(CCc3nc(N4CCCC4)nn3C)nc12` [Roche-Dataset for PDE10A, Compound 266], inhibition was half-maximal at 0.6 nM (IC50).

In the case of `CC(=O)N1CC(C)(C)c2ccc(NC(=O)c3nc(C4CC4)cnc3Nc3cncnc3)cc21` [Roche-Dataset for PDE10A, Compound 952], the IC50 was 7.64 nM.

`O=C(Nc1cc(-c2ccc(Cl)cn2)nn1CCO)c1nc(C2CC2)ccc1Nc1cncnc1` [US8470820, 26] had an IC50 of 1.59 nM.

In turn, `COc1ccc(Cn2nc(N3CCCC3)nc2CCc2nc3c(Cl)cc(Cl)c(C)n3n2)cc1` [Roche-Dataset for PDE10A, Compound 97] came in with an IC50 of 0.64 nM.

`O=C(Nc1cc(-c2ccccn2)nn1CCN1CCOCC1)c1nc(C2CC2)ccc1Nc1cncnc1` [US8470820, 16] returned an IC50 of 1.53 nM.

Compound `COc1ccccc1-c1cn2c(n1)C[C@H](NC(=O)c1c(C(=O)N3CC(F)C3)cnn1C)CC2` [Roche-Dataset for PDE10A, Compound 379] gave an IC50 of 4.41 nM. This IC50 is about 2.9-fold higher than that of the compound before.

In turn, `Cc1ncc(C)n2nc(/C=C/c3nc(N4CCC[C@@H]4C(F)(F)F)nn3C)nc12` [Roche-Dataset for PDE10A, Compound 782] yielded an IC50 of 3.4 nM.

The compound `CN(C)c1nc(/C=C/c2cccc(Br)n2)nc2ccc(Cl)cc12` [Roche-Dataset for PDE10A, Compound 574] had an IC50 of 281 nM.

In turn, `CCNC(=O)c1c(NC(=O)c2c(C(=O)N3CCC3)cnn2C)cnn1C` [Roche-Dataset for PDE10A, Compound 1120] yielded an IC50 of 3130 nM.

The compound `Cn1ncc(C(=O)N2CCOCC2)c1C(=O)Nc1ccc2nc(N3CCCC3)nn2c1` [Roche-Dataset for PDE10A, Compound 415] had an IC50 of 2.45 nM.

Consider `Cc1cncc(-c2nc3cc(NC(=O)c4c(C(=O)N5CCC5)cnn4C)ccn3n2)c1` [Roche-Dataset for PDE10A, Compound 219], for which the IC50 worked out at 11 nM.

Regarding `Cc1ncc(C)n2nc(/C=C/c3nc(N4CC[C@@H](C)C4)nn3C)nc12` [Roche-Dataset for PDE10A, Compound 560], 24 nM corresponded to half-maximal inhibition (IC50).

`Cc1ccc(C(=O)Nc2ccn3nc(-c4ccccc4)nc3c2)cn1` [Roche-Dataset for PDE10A, Compound 684] showed an IC50 of 4670 nM.

Consider `Cn1cc(-c2ccccc2)nc1CCc1ncoc1-c1ccccc1` [Roche-Dataset for PDE10A, Compound 361], for which the IC50 was found to be 1000 nM.

`COc1ccc(-c2nnc(NC(=O)c3nc(C4CC4)ccc3Nc3cncnc3)s2)cc1` [US8470820, 44] came in with an IC50 of 1790 nM.

`Cc1cc(C)n2nc(CCc3cncc(N4CCCC4)n3)nc2n1` [5,7-dimethyl-2-(2-(6-(pyrrolidin-1-yl)pyrazin-2-yl)ethyl)-[1,2,4]triazolo-[1,5-a]pyrimidine] showed an IC50 of 307 nM. Compared with the last compound, the IC50 is about 5.8-fold lower.

`Cc1oc(-c2ccccc2)nc1CCNC(=O)c1nc(C2CC2)cnc1Nc1cncnc1` [Roche-Dataset for PDE10A, Compound 202] showed an IC50 of 3.08 nM.

`COC(=O)c1cnn(C)c1C(=O)Nc1ccn2nc(-c3ccccc3)nc2c1` [Roche-Dataset for PDE10A, Compound 378] returned an IC50 of 15 nM. This IC50 is about 4.9-fold higher than that of the compound before.

Compound `O=C(NCCNS(=O)(=O)c1ccccc1)c1nc(C2CC2)cnc1Nc1cncnc1` [Roche-Dataset for PDE10A, Compound 839] registered an IC50 of 403 nM.

Turning to `Cc1c(C#N)nc2ccc(C#Cc3nc(-c4ccccc4)cn3C)nn12` [Roche-Dataset for PDE10A, Compound 79], 1.27 nM corresponded to half-maximal inhibition (IC50).

Turning to `O=C(Nc1cc(-c2ccccn2)no1)c1nc(C2CC2)ccc1Nc1cncnc1` [US8470820, 51], the half-inhibitory concentration (IC50) came to 3.85 nM.

For the compound `CN(C)CCNC(=O)c1c(NC(=O)c2nc(C3CC3)cnc2Nc2cncnc2)cnn1C` [US8703768, 313], the midpoint of inhibition, the IC50, lay at 51 nM.

As to `Cc1c(Cl)cc(OC(C)C)c2nc(CCc3nc(N4CCCC4)nn3C)nn12` [Roche-Dataset for PDE10A, Compound 223], it took 0.69 nM to reach half-maximal inhibition (IC50).

`O=C(Nc1ccnc(Cl)c1)c1cn(-c2ccc3ccccc3n2)cn1` [Roche-Dataset for PDE10A, Compound 414] gave an IC50 of 302 nM. This IC50 lies about 440-fold higher than the previous one.

In turn, `Cc1cc(-n2nc(CCc3nc4c(C(F)(F)F)cc(Cl)c(C)n4n3)nc2N2CCCC2)ccn1` [Roche-Dataset for PDE10A, Compound 40] registered an IC50 of 9.83 nM.

With `CCn1nc(-c2ccccn2)cc1NC(=O)c1nc(C2CC2)ccc1Nc1cncnc1` [US8470820, 30], 4.73 nM corresponded to half-maximal inhibition (IC50).

For the compound `Cn1ncc(C(=O)N2CCC2)c1C(=O)Nc1cn(-c2ccc3ccccc3n2)cn1` [Roche-Dataset for PDE10A, Compound 137], the IC50 was determined as 0.7 nM. This IC50 lies about 6.8-fold lower than the previous one.

For the compound `CCN(C)c1nc2cc(NC(=O)c3c(C(=O)N4CCOCC4)cnn3C)ccn2n1` [Roche-Dataset for PDE10A, Compound 493], the IC50 worked out at 5.55 nM.

The compound `Cc1nc2cc(Cl)ccc2nc1OCc1nc(N2CCCC2)nn1C` [Roche-Dataset for PDE10A, Compound 982] yielded a concentration for half-maximal inhibition (IC50) of 28 nM.

On to `Cc1cnn2c(C)c(CCc3nc(N4CCCC4)nn3C)nc2c1C` [Roche-Dataset for PDE10A, Compound 216], for which the IC50 is 20 nM.

Compound `Cc1cnc(C)n2nc(/C=C/c3ncnn3C)nc12` [Roche-Dataset for PDE10A, Compound 1142] registered an IC50 of 3910 nM.

As for `CC(C)n1ccc(NC(=O)c2c(C(=O)N3CCC3)cnn2C)n1` [Roche-Dataset for PDE10A, Compound 1118], the IC50 turned out to be 1830 nM.

Turning to `Cn1ncc(C(=O)N2CCC2)c1C(=O)Nc1cc2nc(-c3ccccc3)nn2cc1F` [Roche-Dataset for PDE10A, Compound 204], the IC50 came to 0.78 nM.

The compound `Cc1ncc(C)n2nc(CCc3nc(N)nn3C)nc12` [Roche-Dataset for PDE10A, Compound 1150] registered an IC50 of 3930 nM.

`Cc1ncc(C)n2nc(/C=C/c3nc(N4CC[C@H](C)C4)nn3C)nc12` [Roche-Dataset for PDE10A, Compound 566]: the IC50 was determined as 45 nM.

On to `Cn1nc(-c2ccccn2)cc1NC(=O)c1c(C(=O)N2CCC2)cnn1C` [Roche-Dataset for PDE10A, Compound 535], for which the 50% inhibitory concentration (IC50) was found to be 7.96 nM.

The compound `Cn1ncc(C(=O)N2C[C@@H]3C[C@H]2CO3)c1C(=O)Nc1ccn2nc(N3CCOCC3)nc2c1` [Roche-Dataset for PDE10A, Compound 193] gave an IC50 of 128 nM.

The compound `Cc1c(Cl)cc(Cl)c2nc(CCc3nccn3C)nn12` [Roche-Dataset for PDE10A, Compound 972] had an IC50 of 166 nM. This IC50 and that of the compound before are within 1.5-fold of each other.

Regarding `CN(CCO)c1nc(OCc2nc(-c3ccccc3)cn2C)nc2ccc(Cl)cc12` [Roche-Dataset for PDE10A, Compound 19], the IC50 turned out to be 3.09 nM.

Regarding `Cc1[nH]c(-c2cccnc2)nc1CCN1C(=O)c2ccccc2C1=O` [Roche-Dataset for PDE10A, Compound 260], the IC50 was 1540 nM.

`Cn1ncc(C(=O)N2CCC2)c1C(=O)Nc1nnc(-c2ccccn2)o1` [Roche-Dataset for PDE10A, Compound 1032] showed an IC50 of 10000 nM.

In turn, `O=C1c2ccccc2C(=O)N1CCc1nc(-c2cccnc2)no1` [Roche-Dataset for PDE10A, Compound 579] yielded an IC50 of 16400 nM. This IC50 lies about 1.6-fold higher than the previous one.

As for `CCn1ncc(NC(=O)c2c(C(=O)N3CCC3)cnn2C)c1C(=O)NCC(C)C` [Roche-Dataset for PDE10A, Compound 1057], half-maximal inhibition (IC50) was put at 594 nM.

As for `COCc1ccc(NC(=O)c2nc(C3CC3)cnc2Nc2cncnc2)c(C(=O)NCC(C)(C)O)n1` [US8703768, 210], the IC50 is 0.48 nM.

In the case of `COC1CN(C(=O)c2cnn(C)c2C(=O)Nc2ccn3nc(N4CCOCC4)nc3c2)C1` [Roche-Dataset for PDE10A, Compound 348], the IC50 came to 129 nM.

As to `O=C(Nc1cccc(N2CCCC2=O)c1)c1nc(C2CC2)ccc1Nc1cncnc1` [Roche-Dataset for PDE10A, Compound 831], the IC50 was 24 nM.

The compound `COc1ccc2c(=O)n(C)c3c(C)nc(-c4cccc(Cl)c4)n3c2c1` [Roche-Dataset for PDE10A, Compound 981] yielded an IC50 of 71 nM.
